Results reported in patent US20230085307A1, “PYRIDAZINONE COMPOUND AND HERBICIDE” (NISSAN CHEMICAL CORPORATION, priority 2019, published 2023).

What was measured:
velvetleaf [1] = test: Test Example 4: herbicidal effect by soil treatment (Table 19, symbol M); type: in vivo, velvetleaf (Abutilon theophrasti); conditions: amount of applied herbicide 320 g/ha
In short: (§1)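 Seeds were sown in sterilized diluvial soil and covered with about 1.5 cm of soil. An emulsion formulation diluted with water to a predetermined herbicide amount was sprayed evenly onto the soil surface. Plants grew in a greenhouse at 25° C. to 30° C., and the effect was scored three weeks after application using criteria from an earlier test.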

Italian ryegrass [2] = test: Test Example 4: herbicidal effect by soil treatment (Table 19, symbol K); type: in vivo, Italian ryegrass (Lolium multiflorum); conditions: amount of applied herbicide 320 g/ha
In short: as §1

redroot pigweed [3] = test: Test Example 5: herbicidal effect by foliage application, plastic box (Table 20, symbol N); type: in vivo, redroot pigweed (Amaranthus retroflexus)
In short: (§2)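 Plants sown in sterilized diluvial soil and grown 14 days in a greenhouse at 25° C to 30° C, then sprayed on the foliage with the compound's emulsion diluted in water to a predetermined herbicide amount. Injury to weeds and crops scored three weeks after application on a visual rating scale.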

rice flat sedge = test: Test Example 3: herbicidal effect by foliage application, Wagner pot (Table 18, symbol E); type: in vivo, rice flat sedge (Cyperus iria)
In short: (§3)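 Plants were sown in alluvial soil held under 0.1–0.5 cm standing water and grown 14 days in a greenhouse at 25–30 °C. An emulsifiable formulation, water-diluted to the set dose, was then sprayed onto the foliage, and effects were scored three weeks later using previously defined criteria.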

lambsquarters [4] = test: Test Example 5: herbicidal effect by foliage application, plastic box (Table 20, symbol O); type: in vivo, lambsquarters (Chenopodium album)
In short: as §2

green foxtail [5] = test: Test Example 4: herbicidal effect by soil treatment (Table 19, symbol G); type: in vivo, green foxtail (Setaria viridis); conditions: amount of applied herbicide 320 g/ha
In short: as §1

windgrass [6] = test: Test Example 4: herbicidal effect by soil treatment (Table 19, symbol L); type: in vivo, windgrass (Apera spica-venti); conditions: amount of applied herbicide 320 g/ha
In short: as §1

southern crabgrass [7] = test: Test Example 5: herbicidal effect by foliage application, plastic box (Table 20, symbol F); type: in vivo, southern crabgrass (Digitaria ciliaris)
In short: as §2

redroot pigweed [8] = test: Test Example 4: herbicidal effect by soil treatment (Table 19, symbol N); type: in vivo, redroot pigweed (Amaranthus retroflexus); conditions: amount of applied herbicide 320 g/ha
In short: as §1

green foxtail [9] = test: Test Example 5: herbicidal effect by foliage application, plastic box (Table 20, symbol G); type: in vivo, green foxtail (Setaria viridis)
In short: as §2

persian speedwell [10] = test: Test Example 5: herbicidal effect by foliage application, plastic box (Table 20, symbol R); type: in vivo, Persian speedwell (Veronica persica)
In short: as §2

chickweed [11] = test: Test Example 5: herbicidal effect by foliage application, plastic box (Table 20, symbol P); type: in vivo, common chickweed (Stellaria media)
In short: as §2

wild oat [12] = test: Test Example 4: herbicidal effect by soil treatment (Table 19, symbol I); type: in vivo, wild oat (Avena fatua); conditions: amount of applied herbicide 320 g/ha
In short: as §1

blackgrass = test: Test Example 5: herbicidal effect by foliage application, plastic box (Table 20, symbol J); type: in vivo, blackgrass (Alopecurus myosuroides)
In short: as §2

Chinese sprangletop = test: Test Example 3: herbicidal effect by foliage application, Wagner pot (Table 18, symbol D); type: in vivo, chinese sprangletop (Leptochloa chinensis)
In short: as §3

windgrass [13] = test: Test Example 5: herbicidal effect by foliage application, plastic box (Table 20, symbol L); type: in vivo, windgrass (Apera spica-venti)
In short: as §2

persian speedwell [14] = test: Test Example 4: herbicidal effect by soil treatment (Table 19, symbol R); type: in vivo, Persian speedwell (Veronica persica); conditions: amount of applied herbicide 320 g/ha
In short: as §1

barnyard grass [15] = test: Test Example 3: herbicidal effect by foliage application, Wagner pot (Table 18, symbol H); type: in vivo, barnyard grass (Echinochloa crus-galli)
In short: as §3

Italian ryegrass [16] = test: Test Example 5: herbicidal effect by foliage application, plastic box (Table 20, symbol K); type: in vivo, Italian ryegrass (Lolium multiflorum)
In short: as §2

chickweed [17] = test: Test Example 4: herbicidal effect by soil treatment (Table 19, symbol P); type: in vivo, common chickweed (Stellaria media); conditions: amount of applied herbicide 320 g/ha
In short: as §1

wild oat [18] = test: Test Example 5: herbicidal effect by foliage application, plastic box (Table 20, symbol I); type: in vivo, wild oat (Avena fatua)
In short: as §2

velvetleaf [19] = test: Test Example 5: herbicidal effect by foliage application, plastic box (Table 20, symbol M); type: in vivo, velvetleaf (Abutilon theophrasti)
In short: as §2

lambsquarters [20] = test: Test Example 4: herbicidal effect by soil treatment (Table 19, symbol O); type: in vivo, lambsquarters (Chenopodium album); conditions: amount of applied herbicide 320 g/ha
In short: as §1

southern crabgrass [21] = test: Test Example 4: herbicidal effect by soil treatment (Table 19, symbol F); type: in vivo, southern crabgrass (Digitaria ciliaris); conditions: amount of applied herbicide 320 g/ha
In short: as §1

barnyard grass [22] = test: Test Example 4: herbicidal effect by soil treatment (Table 19, symbol H); type: in vivo, barnyard grass (Echinochloa crus-galli); conditions: amount of applied herbicide 320 g/ha
In short: as §1

barnyard grass [23] = test: Test Example 5: herbicidal effect by foliage application, plastic box (Table 20, symbol H); type: in vivo, barnyard grass (Echinochloa crus-galli)
In short: as §2

[24] = amount of applied herbicide 320 g/ha, foliage application after 14-day growth, evaluated three weeks after application
[25] = foliage application, 320 g/ha, evaluated 3 weeks after application
[26] = amount of applied herbicide 320 g/ha

## Cc1nn(C)c(=O)c(-c2c(-c3ccc4c(c3)OCCO4)sc3cc(F)c(F)cc23)c1O [5-037]
Velvetleaf [1]
  M: velvetleaf, herbicidal effect grade: 5 (Herbicidal rate of 90% or more (almost completely withered))
Italian ryegrass [2]
  K: Italian ryegrass, herbicidal effect grade: 0 (Herbicidal rate of 5% or less (almost no effect))
Redroot pigweed [3]; [24]
  Herbicidal effect by foliage application, N: redroot pigweed: 5 (Herbicidal rate of 90% or more (almost completely withered))
Rice flat sedge; 320 g/ha
  herbicidal effect on rice flat sedge (E): 5 (Herbicidal rate of 90% or more (almost completely withered))
Lambsquarters [4]; [24]
  Herbicidal effect by foliage application, O: lambsquarters: 5 (Herbicidal rate of 90% or more (almost completely withered))
Green foxtail [5]
  G: green foxtail, herbicidal effect grade: 0 (Herbicidal rate of 5% or less (almost no effect))
Windgrass [6]
  L: windgrass, herbicidal effect grade: 0 (Herbicidal rate of 5% or less (almost no effect))
Southern crabgrass [7]; [24]
  Herbicidal effect by foliage application, F: southern crabgrass: 0 (Herbicidal rate of 5% or less (almost no effect))
Redroot pigweed [8]
  N: redroot pigweed, herbicidal effect grade: 4 (Herbicidal rate of 70% or more and less than 90%)
Green foxtail [9]; [24]
  Herbicidal effect by foliage application, G: green foxtail: 0 (Herbicidal rate of 5% or less (almost no effect))
Persian speedwell [10]; [24]
  Herbicidal effect by foliage application, R: persian speedwell: 5 (Herbicidal rate of 90% or more (almost completely withered))
Chickweed [11]; [24]
  Herbicidal effect by foliage application, P: chickweed: 5 (Herbicidal rate of 90% or more (almost completely withered))
Wild oat [12]
  I: wild oat, herbicidal effect grade: 0 (Herbicidal rate of 5% or less (almost no effect))
blackgrass; [24]
  Herbicidal effect by foliage application, J: blackgrass: 0 (Herbicidal rate of 5% or less (almost no effect))
Chinese sprangletop; 320 g/ha
  herbicidal effect on Chinese sprangletop (D): 4 (Herbicidal rate of 70% or more and less than 90%)
Windgrass [13]; [24]
  Herbicidal effect by foliage application, L: windgrass: 0 (Herbicidal rate of 5% or less (almost no effect))
Persian speedwell [14]
  R: persian speedwell, herbicidal effect grade: 5 (Herbicidal rate of 90% or more (almost completely withered))
Barnyard grass [15]; 320 g/ha
  herbicidal effect on barnyard grass (H): 4 (Herbicidal rate of 70% or more and less than 90%)
Italian ryegrass [16]; [24]
  Herbicidal effect by foliage application, K: Italian ryegrass: 0 (Herbicidal rate of 5% or less (almost no effect))
Chickweed [17]
  P: chickweed, herbicidal effect grade: 0 (Herbicidal rate of 5% or less (almost no effect))
Wild oat [18]; [24]
  Herbicidal effect by foliage application, I: wild oat: 0 (Herbicidal rate of 5% or less (almost no effect))
Velvetleaf [19]; [24]
  Herbicidal effect by foliage application, M: velvetleaf: 5 (Herbicidal rate of 90% or more (almost completely withered))
Lambsquarters [20]
  O: lambsquarters, herbicidal effect grade: 5 (Herbicidal rate of 90% or more (almost completely withered))
Southern crabgrass [21]
  F: southern crabgrass, herbicidal effect grade: 0 (Herbicidal rate of 5% or less (almost no effect))
Barnyard grass [22]
  H: barnyard grass, herbicidal effect grade: 0 (Herbicidal rate of 5% or less (almost no effect))
Barnyard grass [23]; [24]
  Herbicidal effect by foliage application, H: barnyard grass: 0 (Herbicidal rate of 5% or less (almost no effect))

## COCc1ccc(-c2oc3ccc(C)cc3c2-c2c(O)c(C)nn(C)c2=O)cc1 [9-061]
Velvetleaf [1]
  M: velvetleaf, herbicidal effect grade: 4 (Herbicidal rate of 70% or more and less than 90%)
Italian ryegrass [2]
  K: Italian ryegrass, herbicidal effect grade: 5 (Herbicidal rate of 90% or more (almost completely withered))
Redroot pigweed [3]; [25]
  N (redroot pigweed) herbicidal effect grade: 5 (Herbicidal rate of 90% or more (almost completely withered))
Rice flat sedge; [26]
  Herbicidal effect on E (rice flat sedge), foliage application: 5 (Herbicidal rate of 90% or more (almost completely withered))
Lambsquarters [4]; [25]
  O (lambsquarters) herbicidal effect grade: 5 (Herbicidal rate of 90% or more (almost completely withered))
Green foxtail [5]
  G: green foxtail, herbicidal effect grade: 5 (Herbicidal rate of 90% or more (almost completely withered))
Windgrass [6]
  L: windgrass, herbicidal effect grade: 0 (Herbicidal rate of 5% or less (almost no effect))
Southern crabgrass [7]; [25]
  F (southern crabgrass) herbicidal effect grade: 5 (Herbicidal rate of 90% or more (almost completely withered))
Redroot pigweed [8]
  N: redroot pigweed, herbicidal effect grade: 5 (Herbicidal rate of 90% or more (almost completely withered))
Green foxtail [9]; [25]
  G (green foxtail) herbicidal effect grade: 5 (Herbicidal rate of 90% or more (almost completely withered))
Persian speedwell [10]; [25]
  R (persian speedwell) herbicidal effect grade: 5 (Herbicidal rate of 90% or more (almost completely withered))
Chickweed [11]; [25]
  P (chickweed) herbicidal effect grade: 5 (Herbicidal rate of 90% or more (almost completely withered))
Wild oat [12]
  I: wild oat, herbicidal effect grade: 2 (Herbicidal rate of 20% or more and less than 40%)
blackgrass; [25]
  J (blackgrass) herbicidal effect grade: 5 (Herbicidal rate of 90% or more (almost completely withered))
Chinese sprangletop; [26]
  Herbicidal effect on D (Chinese sprangletop), foliage application: 4 (Herbicidal rate of 70% or more and less than 90%)
Windgrass [13]; [25]
  L (windgrass) herbicidal effect grade: 4 (Herbicidal rate of 70% or more and less than 90%)
Persian speedwell [14]
  R: persian speedwell, herbicidal effect grade: 5 (Herbicidal rate of 90% or more (almost completely withered))
Barnyard grass [15]; [26]
  Herbicidal effect on H (barnyard grass), foliage application: 5 (Herbicidal rate of 90% or more (almost completely withered))
Italian ryegrass [16]; [25]
  K (Italian ryegrass) herbicidal effect grade: 5 (Herbicidal rate of 90% or more (almost completely withered))
Chickweed [17]
  P: chickweed, herbicidal effect grade: 4 (Herbicidal rate of 70% or more and less than 90%)
Wild oat [18]; [25]
  I (wild oat) herbicidal effect grade: 3 (Herbicidal rate of 40% or more and less than 70%)
Velvetleaf [19]; [25]
  M (velvetleaf) herbicidal effect grade: 5 (Herbicidal rate of 90% or more (almost completely withered))
Lambsquarters [20]
  O: lambsquarters, herbicidal effect grade: 5 (Herbicidal rate of 90% or more (almost completely withered))
Southern crabgrass [21]
  F: southern crabgrass, herbicidal effect grade: 5 (Herbicidal rate of 90% or more (almost completely withered))
Barnyard grass [22]
  H: barnyard grass, herbicidal effect grade: 5 (Herbicidal rate of 90% or more (almost completely withered))
Barnyard grass [23]; [25]
  H (barnyard grass) herbicidal effect grade: 5 (Herbicidal rate of 90% or more (almost completely withered))
